Results from patent US20080221158A1, “Novel 14 and 15 Membered Ring Compounds” (PLIVA - Istrazivacki Institut d.o.o, priority 2003, published 2008).

What was measured:
Test in all cases: MIC against various organisms (broth dilution)
Format in all cases: cell-based
S. pyogenes 3565 = conditions: Streptococcus pyogenes
Procedure: (§1) Using a standard broth dilution method in microtitre, compounds were tested for antibacterial activity. The compounds in the above examples gave minimum inhibitory concentrations (MICS) less than 1 microgram per millilitre against erythromycin-sensitive and erythromycin-resistant strains of Streptococcus pneumoniae and Streptococcus pyogenes.
(§2) In addition, the MIC (1 μg/mL) of test compounds against various organisms was determined including:
(§3) S. aureus Smith ATCC 13709, S. pnetnioniae SP030, S. pyogenes 3565, E. faecalis ATCC 29212, H. influenza ATCC 49247, M. catarrhalis ATCC 23246.

[1] = test system: M. catarrhalis ATCC 23246; conditions: Moraxella catarrhalis, ATCC23246
Procedure: as §1, §2, §3

H. influenzae ATCC 49247 = conditions: Haemophilus influenzae, ATCC49247
Procedure: as §1, §2, §3

S. pneumoniae SP030 = conditions: Streptococcus pneumoniae
Procedure: as §1, §2, §3

[2] = test system: S. aureus Smith ATCC 13709; conditions: Staphylococcus aureus, ATCC13709
Procedure: as §1, §2, §3

E. faecalis ATCC 29212 = conditions: Enterococcus faecalis, ATCC29212
Procedure: as §1, §2, §3

Q: How did the MIC (S. pyogenes 3565) turn out when CC[C@@H]1OC(=O)[C@H](C)[C@H](O[C@@H]2C[C@@](O)(OC)[C@@H](NC(=O)CCOCCOc3cc4c(=O)c(C(=O)O)cn(C5CC5)c4cc3Cl)[C@H](C)O2)[C@@H](C)[C@H](O[C@@H]2O[C@H](C)C[C@H](N(C)C)[C@@H]2O)[C@](C)(O)C[C@H](C)CN(C)[C@H](C)[C@@H](O)[C@]1(C)O [Example 3, 4″-(S)-(3-[2-(3-Carboxy-7-chloro-1-cyclopropyl-4-oxo-1,4-dihydro-quinolin-6-yloxy)ethoxy]-propionylamino]-4″-deoxyazithromycin] was run?
A: The MIC was < 1 µg/mL.

Q: What about the MIC [1] of the same compound?
A: The MIC was < 2 µg/mL.

Q: What about the MIC (H. influenzae ATCC 49247) of the same compound?
A: Its MIC is < 2 µg/mL.

Q: And the MIC (S. pneumoniae SP030)?
A: Its MIC is < 1 µg/mL.

Q: What about the MIC [2] of the same compound?
A: The MIC was < 1 µg/mL.

Q: What about the MIC (E. faecalis ATCC 29212) of the same compound?
A: The MIC was < 1 µg/mL.

Q: Which results are given for CC[C@H]1OC(=O)[C@H](C)[C@@H](O[C@H]2C[C@@](O)(OC)[C@@H](NC(=O)CCOCCNc3cc4c(=O)c(C(=O)O)cn(C5CC5)c4cc3Cl)[C@H](C)O2)[C@H](C)[C@@H](O[C@@H]2O[C@H](C)C[C@H](N(C)C)[C@H]2O)[C@](C)(O)C[C@@H](C)CN(C)[C@H](C)[C@@H](O)[C@]1(C)O [Example 2]?
A: MIC (S. pyogenes 3565): < 1 µg/mL; MIC [1]: < 2 µg/mL; MIC (H. influenzae ATCC 49247): < 2 µg/mL; MIC (S. pneumoniae SP030): < 1 µg/mL; MIC [2]: < 1 µg/mL; MIC (E. faecalis ATCC 29212): < 1 µg/mL

Q: CC[C@H]1OC(=O)[C@H](C)[C@@H](O[C@H]2C[C@@](O)(OC)[C@@H](NC(=O)CCOCCNc3cc4c(=O)c(C(=O)O)cn(C5CC5)c4cc3Cl)[C@H](C)O2)[C@H](C)[C@@H](OC2O[C@H](C)C[C@H](N(C)C)[C@H]2O)[C@](C)(O)C[C@@H](C)CN(C)[C@H](C)[C@@H](O)[C@]1(C)O (stereo partly drawn) [Example 1] was tested. Which MIC (S. pyogenes 3565) did it give?
A: The MIC was < 1 µg/mL.

Q: What about the MIC [1] of the same compound?
A: Its MIC is < 2 µg/mL.

Q: And the MIC (H. influenzae ATCC 49247)?
A: Its MIC is < 2 µg/mL.

Q: And the MIC (S. pneumoniae SP030)?
A: The MIC was < 1 µg/mL.

Q: And the MIC [2]?
A: The MIC was < 1 µg/mL.

Q: What about the MIC (E. faecalis ATCC 29212) of the same compound?
A: Its MIC is < 1 µg/mL.
